“Also recorded” adds a separate entry of the source. Like-named read-outs stand apart in the source and are kept apart here.

For data set [1] the following is noted: Table 1, drugs developed to target muscle mass; cited from earlier work.
Data set [2] concerns dexamethasone-treated mice. The conditions noted are these: for running capacity / exercise / Muscle mass: dexamethasone-treated mice; for Muscle mass: oxidative, glycolytic and mixed muscles. The text has this:
It was also further examined whether an osteocalcin treatment might preserve muscle function and/or muscle mass in a clinically relevant mouse model of sarcopenia.
FIG. 9A and FIG. 9B show exemplary graphs pf exemplary modeling sarcopenia in mice.

The test system of the next data set is Liver Factor 1. The data set is described as follows: Liver Factor 1 production during exercise. It is filed as in vivo. The note with it: FIG. 7. The text has this:
OCN signaling in the liver is required for exercise capacity (see FIG. 6). OCN enhances Liver Factor 1 production during exercise (see FIG. 7). Liver Factor 1 mediates OCN regulation of exercise capacity (see FIG. 8).

The test system of data set [3] is young and older mice. The data set is described as follows: exercise capacity of young and older mice given exogenous osteocalcin. The class given is in vivo. The note with it: FIG. 1. The text has this: Exemplary data showing that osteocalcin signaling in myofibers favors adaptation to exercise because it increases uptake and utilization of glucose into the tricarboxylic acid cycle and promotes fatty acids utilization are included in International Patent Application Publication WO 2016/081728, the disclosure of which is incorporated herein by reference. Osteocalcin signaling in myofibers is also the main determinant of the exercise-induced upregulation of Interleukin-6, a myokine that favors the generation of bioactive osteocalcin and of nutrients made available for myofibers. Furthermore, circulating osteocalcin levels decline steeply before mid-life and increase less during exercise in older than in younger mice. […] Thus, there is an osteocalcin-interleukin-6 axis that can be necessary to enhance muscle function during exercise and can be harnessed to reverse age-induced decline in exercise capacity.
Exemplary data showing that, by signaling in myofibers, osteocalcin favors adaptation to exercise because it promotes glucose uptake and utilization in the tricarboxylic acid (TCA) cycle as well as utilization of FAs are also included in International Patent Application Publication WO 2016/081728, the disclosure of which is incorporated herein by reference. […]

Data set [4] deals with young and older mice. The conditions noted are these: exogenous osteocalcin, data of WO 2016/081728, cited from earlier work.
In another data set the test system is Dexamethasone mice. The data set is described as follows: another recognized model of sarcopenia: dexamethasone delivered by pumps for 28 days, muscle mass and treadmill running. It is filed as in vivo. Details: dose or concentration left out as unconfirmed. The conditions noted are these: dexamethasone by pumps for 28 days; osteocalcin also by pumps.
The test system of data set [5] is mice that received dexamethasone. The data set is described as follows: deleterious effect of dexamethasone on muscle function, osteocalcin given concomitantly or after two weeks of dexamethasone. It is filed as in vivo.

In the case of `CN(C)N(C)C(=O)[C@@]1(Cc2ccccc2)CCCN(C(=O)[C@@H](Cc2c[nH]c3ccccc23)NC(=O)C(C)(C)N)C1` [Anamorelin, reference compound], the Muscle mass entry in data set [1] is recorded as “✓”.
Consider `C[C@](O)(COc1ccc(C#N)cc1)C(=O)Nc1ccc(C#N)c(C(F)(F)F)c1` [Enbosarm, reference compound], for which the Muscle mass result in data set [1] is recorded as “✓”.
Regarding `C[C@H](Nc1ccc(C#N)c(Cl)c1Cl)C(C)(C)O` [GSK2849466, reference compound], the Muscle mass entry in data set [1] is given as “✓”.
Take `N#Cc1ccc(N2CCC[C@@H]2[C@@H](O)C(F)(F)F)cc1C(F)(F)F` [VK5211, reference compound]: the “running capacity / exercise” value in data set [2] is reported as “only had a modest effect”. The values for the Muscle mass entry in data set [2] and in data set [1] were “fully restored muscle mass to normal levels” and “✓”, respectively.
Consider `C[C@@H]1C[C@H]2[C@@H]3CCC4=CC(=O)C=C[C@]4(C)[C@@]3(F)[C@@H](O)C[C@]2(C)[C@@]1(O)C(=O)CO` [dexamethasone, reference compound], for which, in data set [2] (after dexamethasone treatment), the “decrease of circulating lymphocyte counts” value is on record as 50%. For the same molecule, in data set [2] (mouse, in vivo), the “diminution of gastrocnemius muscle mass” value is given as 30% and the “reduction of running capacity” value is recorded as 50%.
With “osteocalcin (YLGASVPSPDPLEPTREQCELNPACDELSDQYGLKTAYKRIYGITI; UniProt P86546 50-95, looked up) [a bone-derived hormone]”, in the data set with Liver Factor 1, the “Liver Factor 1 production during exercise” value is “enhances”. In the data set on young and older mice [3], the “age-related decline in exercise” value is on record as “corrects”. Further, the “safety / negative side-effects” value in the data set on animal models is “safe with no recorded negative side-effects”. In data set [2] (Dex-induced sarcopenia), the “performance compared with VK5211” value was “outperforms”. For the same molecule, the “IL-6 in Dex-induced sarcopenia” value in data set [2] (FIG. 12) was “favors IL-6”. Besides, in data set [2], the “running capacity / exercise” value is “fully rescued the running capacity”. In data set [2] (listed as OCN), the Muscle mass entry is listed as “marginal effect”. Further, in data set [2] (mouse, in vivo), the DEX toxicity entry is given as “does not interfere”, the “dexamethasone-induced immune suppression (circulating lymphocyte counts)” value is “did not interfere with nor did it exacerbate” and the off-target effects entry is “no overt off-target effects”. In addition, the “exercise capacity of older mice” value with young and older mice [4] (12 to 15 month-old mice) was “confers to 15 months-old mice exercise capacity of 3 month-old mice; also recorded: confers to 12 to 15 month-old mice the exercise capacity of 3 month-old mice”. The “exercise capacity of young mice” value in the data set with young and older mice [4] is listed as “increases the exercise capacity”. In the data set on Dexamethasone mice, the Muscle mass entry is reported as “lost significantly less muscle mass” and the “exercise capacity (ability to run on a treadmill)” value is reported as “normal exercise capacity”. The “deleterious effect of dexamethasone on muscle function” value in data set [5] (concomitant treatment with osteocalcin, 1 year-old mice) is “presented”. The “deleterious effect of dexamethasone on muscle function” value in data set [5] (osteocalcin administered in mice that had already received dexamethasone for two weeks) is recorded as “partially revert”.

B1: BYM338: Myostatin inhibitor, Novartis (antibody, chains of the INN, looked up, V domains shown)
VH: QVQLVQSGAEVKKPGASVKVSCKASGYTFTSSYINWVRQAPGQGLEWMGTINPVSGSTSYAQKFQGRVTMTRDTSISTAYMELSRLRSDDTAVYYCARGGWFDYWGQGTLVTVSS
VL: QSALTQPASVSGSPGQSITISCTGTSSDVGSYNYVNWYQQHPGKAPKLMIYGVSKRPSGVSNRFSGSKSGNTASLTISGLQAEDEADYYCGTFAGGSYYGVFGGGTKLTVL
Take B1: the Muscle mass result in data set [1] is given as “✓”.

B2: REGN1033: Myostatin inhibitor, Regeneron (antibody, chains of the INN, looked up, V domains shown)
VH: EVQVLESGGDLVQPGGSLRLSCAASGFTFSAYAMTWVRQAPGKGLEWVSAISGSGGSAYYADSVKGRFTISRDNSKNTVYLQMNSLRAEDTAVYYCAKDGAWKMSGLDVWGQGTTVIVSS
VL: DIQMTQSPASLSASVGDRVTITCRASQDISDYLAWYQQKPGKIPRLLIYTTSTLQSGVPSRFRGSGSGTDFTLTISSLQPEDVATYYCQKYDSAPLTFGGGTKVEIK
As to B2, the Muscle mass result in data set [1] was “✓”.

B3: PF-06252616: Myostatin inhibitor, Pfizer (antibody, chains of the INN, looked up, V domains shown)
VH: EVQLLESGGGLVQPGGSLRLSCAASGFTFSSYAMSWVRQAPGKGLEWVSTISSGGSYTSYPDSVKGRFTISRDNSKNTLYLQMNSLRAEDTAVYYCAKQDYAMNYWGQGTLVTVSS
VL: DIQMTQSPSSLSASVGDRVTITCKASQDVSTAVAWYQQKPGKAPKLLIYSASYRYTGVPSRFSGSGSGTDFTLTISSLQPEDFATYYCQQHYSTPWTFGGGTKVEIK
As for B3, the Muscle mass entry in data set [1] was “✓”.

B4: LY2495655: Myostatin inhibitor, Eli Lilly (antibody, chains of the INN, looked up, V domains shown)
VH: EVQLVESGGGLVQPGGSLRLSCAASGLTFSRYPMSWVRQAPGKGLVWVSAITSSGGSTYYSDTVKGRFTISRDNAKNTLYLQMNSLRAEDTAVYYCARLPDYWGQGTLVTVSS
VL: EIVLTQSPGTLSLSPGERATLSCRASSSVSSSYLHWYQQKPGQAPRLLIYSTSNLVAGIPDRFSGSGSGTDFTLTISRLEPEDFAVYYCQHHSGYHFTFGGGTKVEIK
In the case of B4, in data set [1], the Muscle mass entry was “✓”.

Values taken from US12662521B2, “Engineered osteocalcins for treating sarcopenia” (The Trustees of Columbia University in the City of New York, priority 2020, dated 2026).
